Test results: patent publication US9089850B2, “Method and apparatus for separation of pharmaceutical materials on the basis of their density” (Syracuse University, priority 2009, dated 2015)
Like-named read-outs stand apart in the source and are kept apart here.

What was measured:
[1] = polymorphic form expected for the crystallization solvent, previous work [Parmar, 2007]; cited from earlier work
[2] = Density gradient analysis of fresh, quickly crystallized sulfathiazole samples; type: physicochemical; details: relative amount of form in density gradient; benzene/chloroform to tetrachloroethylene gradient
Excerpt: Our density gradient methodology is a refinement and extension to the pharmaceutical industry of existing well-established methodologies in other fields. [Bomstein & Steberl, 1959; Kind & Summerscales, 1966; US 2004/6,709,871 B2; Richards, 1999; ASTM D 1505-98; ISO 1183-2:2004; Yanagi, 2010; Doom, 2010; Chernov, 2009a.b; Moshammer, 2009; Fleurier, 2009; Kato, 2009; Deng, 2008, 2009; Park, 2008; Lu, 2006; Hersam, 2006]. A density gradient is made with a “gradient maker” consisting of two chambers connected through a stopcock and with a second stopcock on one of the containers to an outflow tube. A mixer is used in the outflow chamber.
We have developed this technique to optimize reliability and visibility of the resulting separated materials. In particular, we have created a device that permits the formation of identical gradients in one overall unobstructed container (see FIG. 3 and FIG. 4). These columns are at the outer wall of the overall cylindrical container. A central black column permits viewing of the materials in each column individually. The tubes that will contain the samples of crystalline material are open at the bottom; the gradient maker fills all columns simultaneously forming identical gradients.
A density gradient was prepared in the device described above using a mixture of benzene and chloroform (ρ=1.32 g/cm^3) as one liquid and tetrachloroethylene (ρ=1.62 g/cm^3) as the other.
Fresh crystalline samples of solid sulfathiazole were prepared by crystallizing about 50 mg of sulfathiazole (Sigma-Aldrich lot 028K1522) from water, methanol, ethanol, isopropanol and n-butanol by dissolving them at about 55° C. and then cooling to ambient temperature to form crystals at which point material was harvested. All materials were made at the same time, isolated within an hour of each other and dried with a stream of argon gas.
Based on the density gradient analysis, this rapid crystallization gives from water a mixture of forms III and IV in about equal amount, from both methanol and ethanol form II and III, from isopropanol a mixture of forms I, II and III and from n-butanol form I. The bands for this last material are distinctly more compact than those of the other forms.
One of the major benefits of the gradient method is that it provides an immediate visual report of the number of materials in an API preparation. A qualitative interpretation of the relative amounts of components in the gradient is easily made. A more quantitative estimate could be obtained by a simple light scattering analysis with simple added apparatus that performs either transmission or 90 degree scattering measurements. Calibration of the light scattering signal as a function of the amount of API could be performed using a sample in a very steep gradient (and thus not separated). This would make this a semi-quantitative method.

[3] = cited from earlier work
[4] = Seeding experiment in n-propanol with flotation density test; type: physicochemical; details: crystals slowly grown in n-propanol at ambient temperature, seeded with material of form III density
Excerpt: Parmar, 2007 states that crystallization from n-propanol yields form I and that that form is stable in this solvent. In a seeding experiment we harvested material that was the right density for form III and used this to seed crystallization in n-propanol. The resulting crystals, slowly grown at ambient temperature, are not consistent with form I or form III, but are consistent with form II. The density by a flotation density test indicates this material to be form II. The observation that form II is obtained in this case is quite probably due to the presence of a small amount of form II in the predominantly form III sample. […] That is not the case with our seed crystals.

For `Nc1ccc(S(=O)(=O)Nc2nccs2)cc1` [Tube C, sulfathiazole], the “Expected [23]” value [1] is listed as “Form IV”, the “Form II” value [2] is listed as “major” and the “Form III” value [2] is listed as “major”. The “Form IV” value [2] was “minor”.

In the case of `Nc1ccc(S(=O)(=O)Nc2nccs2)cc1` [form II, sulfathiazole], the density ([3]; single crystal x-ray results [Blagden, 1998], listed as II) is given as 1.551.

For `Nc1ccc(S(=O)(=O)Nc2nccs2)cc1` [form V, sulfathiazole], the density ([3]; synchrotron x-ray powder diffraction study [Chan, 1999]) is listed as 1.484.

In the case of `Nc1ccc(S(=O)(=O)Nc2nccs2)cc1` [Tube B, sulfathiazole], the “Expected [23]” value [1] is listed as “Form II”, the “Form II” value [2] is listed as “major” and the “Form III” value [2] is listed as “major”. For the same compound, the “Form IV” value [2] was “minor”.

In the case of `Nc1ccc(S(=O)(=O)Nc2nccs2)cc1` [Tube A, sulfathiazole], the “Expected [23]” value [1] is given as “Form IV”, the “Form II” value [2] is given as “minor” and the “Form III” value [2] is given as “major”. For the same compound, the “Form IV” value [2] was “major”.

For `Nc1ccc(S(=O)(=O)Nc2nccs2)cc1` [form III, sulfathiazole], the density ([3]; single crystal x-ray results [Blagden, 1998], listed as III) is given as 1.569.

In the case of `Nc1ccc(S(=O)(=O)Nc2nccs2)cc1` [sulfathiazole], the “polymorphic form by flotation density test” value [4] is reported as “form II”.

For `Nc1ccc(S(=O)(=O)Nc2nccs2)cc1` [Tube D, sulfathiazole], the “Expected [23]” value [1] is given as “Form III”, the “Form I” value [2] is given as “very” and the “Form II” value [2] is given as “major”. For the same compound, the “Form III” value [2] was “minor” and the “Form IV” value [2] was “very”.

In the case of `Nc1ccc(S(=O)(=O)Nc2nccs2)cc1` [form IV, sulfathiazole], the density ([3]; single crystal x-ray results [Blagden, 1998], listed as IV) is given as 1.595.

For `Nc1ccc(S(=O)(=O)Nc2nccs2)cc1` [form I, sulfathiazole], the density ([3]; single crystal x-ray results [Blagden, 1998], listed as I) is listed as 1.500.

For `Nc1ccc(S(=O)(=O)Nc2nccs2)cc1` [Tube E, sulfathiazole], the “Expected [23]” value [1] is given as “Form I” and the “Form I” value [2] is given as “major”.
